“And” between values parts separate entries of the source, which are not always exact repeats. Equal entries are not always repeated.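 The compound was tested at five concentrations on cells cultured in 96-well plates, with a 48-hour exposure period. Abbreviation: GI50, concentration required for 50% inhibition of growth.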 The source made the active and inactive calls. No stated cut-off is given here; in the data, active = GI50 up to about 1.1 µM and inactive = higher.
Experiments:
Test in all cases: NCI-60 cell line screen, 48 h
[1] = tested on: K562
[2] = tested on: UACC-62
[3] = tested on: SW-620
[4] = tested on: NCI/ADR-RES
[5] = tested on: Malme-3M
[6] = tested on: EKVX
[7] = tested on: M14
[8] = tested on: T47D
[9] = tested on: SNB-19
[10] = tested on: SF-268
[11] = tested on: HL-60
[12] = tested on: RXF 393
[13] = tested on: A549
[14] = tested on: SF-539
[15] = tested on: NCI-H460
[16] = tested on: HCT-116
[17] = tested on: SR
[18] = tested on: SN12C
[19] = tested on: PC-3
[20] = tested on: MDA-MB-231

Row | SMILES | GI50 [1] | GI50 [2] | GI50 [3] | GI50 [4] | GI50 [5] | GI50 [6] | GI50 [7] | GI50 [8] | GI50 [9] | GI50 [10] | GI50 [11] | GI50 [12] | GI50 [13] | GI50 [14] | GI50 [15] | GI50 [16] | GI50 [17] | GI50 [18] | GI50 [19] | GI50 [20]
1 | CC(C)(C)C=C=C(C(C)(C)C)P(=O)(O)O | > 100 µM (inactive) | > 100 µM (inactive) | > 100 µM (inactive) | > 100 µM (inactive) | > 100 µM (inactive) | > 100 µM (inactive) | > 100 µM (inactive) | > 100 µM (inactive) | > 100 µM (inactive) | > 100 µM (inactive) | > 100 µM (inactive) | > 100 µM (inactive) | > 100 µM (inactive) | > 100 µM (inactive) | > 100 µM (inactive) | > 100 µM (inactive) | > 100 µM (inactive) | > 100 µM (inactive) | > 100 µM (inactive) | 
2 | CCOC1=C/C(=N\Nc2ccc([N+](=O)[O-])cc2)CCC1 | 18.9 µM (inactive) | 22.5 µM (inactive) | 14.8 µM (inactive) | 30.1 µM (inactive) | 96.2 µM (inactive) | 87.9 µM (inactive) | 49.4 µM (inactive) |  | 34.7 µM (inactive) | 11.3 µM (inactive) | 13.6 µM (inactive) | 21.9 µM (inactive) | 71.6 µM (inactive) | 48.1 µM (inactive) | 25.4 µM (inactive) | 41.7 µM (inactive) | 4.53 µM (inactive) | 29.9 µM (inactive) | 53.6 µM (inactive) | 27.9 µM (inactive)
3 | Oc1cc(O)c2c(-c3c(O)c(-c4ccc(O)c(O)c4)[o+]c4cc(O)cc(O)c34)c(O)c(-c3ccc(O)c(O)c3)[o+]c2c1 | > 10 µM (inactive) | 22.6 µM (inactive) | 48.4 µM (inactive) |  | 46 µM (inactive) | 28.7 µM (inactive) | 55.5 µM (inactive) |  | 36 µM (inactive) | 40.3 µM (inactive) | > 10 µM (inactive) | 35.9 µM (inactive) | 48.2 µM (inactive) | 25.6 µM (inactive) | 21.5 µM (inactive) | 48.8 µM (inactive) | 25.9 µM (inactive) | 39.9 µM (inactive) |  | 
4 | CN=[S+]([O-])(c1ccccc1)c1ccccc1 | > 100 µM (inactive) | > 100 µM (inactive) | > 100 µM (inactive) |  | > 100 µM (inactive) | > 100 µM (inactive) | > 100 µM (inactive) |  | > 100 µM (inactive) | > 100 µM (inactive) | > 100 µM (inactive) | > 100 µM (inactive) | > 100 µM (inactive) | > 100 µM (inactive) | > 100 µM (inactive) | > 100 µM (inactive) | > 100 µM (inactive) | > 100 µM (inactive) |  | 
5 | O=c1c2cc(I)ccc2nc(-c2cccs2)n1/N=C/c1ccccc1 | 7.18 µM (inactive) | > 100 µM (inactive) | > 100 µM (inactive) | > 100 µM (inactive) |  | > 100 µM (inactive) | > 100 µM (inactive) | 80.5 µM (inactive) | > 100 µM (inactive) | > 100 µM (inactive) | > 100 µM (inactive) | > 100 µM (inactive) | > 100 µM (inactive) | > 100 µM (inactive) | > 100 µM (inactive) | > 100 µM (inactive) | 10.1 µM (inactive) | > 100 µM (inactive) | > 100 µM (inactive) | 
6 | NC(=S)N/N=C(\CCC(=O)Nc1ccccc1[N+](=O)[O-])CC(=O)c1ccco1 | > 100 µM (inactive) | > 100 µM (inactive) | > 100 µM (inactive) |  | > 100 µM (inactive) | > 100 µM (inactive) | > 100 µM (inactive) |  | > 100 µM (inactive) | > 100 µM (inactive) | > 100 µM (inactive) | > 100 µM (inactive) | > 100 µM (inactive) | > 100 µM (inactive) | > 100 µM (inactive) | > 100 µM (inactive) | > 100 µM (inactive) | > 100 µM (inactive) |  | 
7 | Cc1cc(Br)c(N2C3=C(CC4=C2CCCC4=O)C(=O)CCC3)c(Br)c1 | 13.2 µM (inactive) | 63.2 µM (inactive) | 31.6 µM (inactive) | 32.1 µM (inactive) |  | 31 µM (inactive) | > 100 µM (inactive) |  | > 100 µM (inactive) | 75.5 µM (inactive) | 32.7 µM (inactive) | 25.8 µM (inactive) | 39.8 µM (inactive) | > 100 µM (inactive) | 31.5 µM (inactive) |  | 36.6 µM (inactive) | 74.1 µM (inactive) | 18.6 µM (inactive) | 
8 | N#C/C(=C\c1ccc(O)cc1)C(N)=O | > 100 µM (inactive) | > 100 µM (inactive) | > 100 µM (inactive) | > 100 µM (inactive) | > 100 µM (inactive) | > 50.7 µM (inactive) | > 100 µM (inactive) |  | > 100 µM (inactive) | > 100 µM (inactive) | > 100 µM (inactive) and 57.7 µM (inactive) | 77.3 µM (inactive) | > 100 µM (inactive) | > 100 µM (inactive) | > 100 µM (inactive) | > 100 µM (inactive) |  | > 100 µM (inactive) |  | 
9 | CC1=C(C)C(=O)c2c(cc3ccccn23)C1=O | 27.5 µM (inactive) | 15.6 µM (inactive) | 19.2 µM (inactive) |  | 4.9 µM (inactive) | 21.3 µM (inactive) | 14.2 µM (inactive) |  | 15.3 µM (inactive) | 20.9 µM (inactive) | 17.4 µM (inactive) | 14.7 µM (inactive) | 18.4 µM (inactive) | 20 µM (inactive) | 15.5 µM (inactive) |  | 23.3 µM (inactive) | 13.7 µM (inactive) |  | 
10 | COc1ccccc1C(O)(c1ccccc1)C(O)(c1ccccc1)c1ccccc1OC (configuration not stated) | > 100 µM (inactive) | > 100 µM (inactive) | > 100 µM (inactive) |  | > 100 µM (inactive) | > 100 µM (inactive) | > 100 µM (inactive) |  | > 100 µM (inactive) | > 100 µM (inactive) | 9.82 µM (inactive) | > 100 µM (inactive) | > 100 µM (inactive) | > 100 µM (inactive) | > 100 µM (inactive) | > 100 µM (inactive) | > 100 µM (inactive) | > 100 µM (inactive) |  | 
11 | NC1=NC2=c3ccccc3=C(c3cnccn3)C2(c2cnccn2)c2ccccc21 (configuration not stated) | 66.5 µM (inactive) | > 100 µM (inactive) | > 100 µM (inactive) |  | 49.9 µM (inactive) | 44.7 µM (inactive) | > 100 µM (inactive) |  | 48.2 µM (inactive) | 74.1 µM (inactive) | 52.8 µM (inactive) | > 100 µM (inactive) | 45.7 µM (inactive) | 80.5 µM (inactive) | 58.6 µM (inactive) | 76.9 µM (inactive) | 39.5 µM (inactive) | > 100 µM (inactive) |  | 
12 | Cc1cn(C2CC(N)C(CN)O2)c(=O)[nH]c1=O (configuration not stated) | > 100 µM (inactive) | > 100 µM (inactive) | > 100 µM (inactive) | > 100 µM (inactive) | > 100 µM (inactive) | > 100 µM (inactive) | > 100 µM (inactive) | 37.8 µM (inactive) | > 100 µM (inactive) | > 100 µM (inactive) | > 100 µM (inactive) | > 100 µM (inactive) | > 100 µM (inactive) | > 100 µM (inactive) | > 100 µM (inactive) | > 100 µM (inactive) | > 100 µM (inactive) | 80.7 µM (inactive) | > 100 µM (inactive) | 
13 | Nc1nc(N)c(/N=N/c2ccc(C(=O)O)c(O)c2)c(N)n1 | < 0.01 µM (active) | > 100 µM (inactive) | > 100 µM (inactive) | > 100 µM (inactive) | > 100 µM (inactive) | 91.6 µM (inactive) | > 100 µM (inactive) |  | > 100 µM (inactive) | > 100 µM (inactive) |  | > 100 µM (inactive) | > 100 µM (inactive) | > 100 µM (inactive) | > 100 µM (inactive) | > 100 µM (inactive) | > 100 µM (inactive) | > 100 µM (inactive) | > 100 µM (inactive) | > 100 µM (inactive)
14 | CCOC(=O)N1Cc2ccoc2C1 | > 100 µM (inactive) | > 100 µM (inactive) | > 100 µM (inactive) |  | > 100 µM (inactive) | > 100 µM (inactive) | > 100 µM (inactive) |  | > 100 µM (inactive) | 0.769 µM (active) | > 100 µM (inactive) | > 100 µM (inactive) | 43.7 µM (inactive) | > 100 µM (inactive) | > 100 µM (inactive) | > 100 µM (inactive) | > 100 µM (inactive) | > 100 µM (inactive) |  | 
15 | COc1cc([C@@H]2c3cc4c(cc3[C@@H](OC(=O)c3cccc(N)c3)C3COC(=O)[C@@H]32)OCO4)cc(OC)c1O (some centres not stated) | 2.02 µM (inactive) | 0.667 µM (active) | 3.33 µM (inactive) |  | 2.37 µM (inactive) | 27 µM (inactive) | 0.933 µM (active) |  | 34.8 µM (inactive) | 1.47 µM (inactive) | 2.7 µM (inactive) | 0.632 µM (active) | 1.63 µM (inactive) | 0.621 µM (active) | 0.671 µM (active) | 5.71 µM (inactive) | 0.565 µM (active) | 3.42 µM (inactive) |  | 
16 | COc1cccc(C2c3cc4c(cc3OC(N3CCCC3)C2C)OCO4)c1 (configuration not stated) | 2.69 µM (inactive) | 4.66 µM (inactive) | 4.55 µM (inactive) | 4.53 µM (inactive) |  | 21.3 µM (inactive) | 3.96 µM (inactive) | 5.16 µM (inactive) | 11.4 µM (inactive) | 14.7 µM (inactive) |  |  | 9.2 µM (inactive) | 8.69 µM (inactive) |  | 4.76 µM (inactive) | 3.82 µM (inactive) | 20.9 µM (inactive) | 11 µM (inactive) | 

From ChEMBL document CHEMBL1201862, “PubChem BioAssay data set” (2004)
